Results as given in US7396842B2, “Five-membered cyclic compounds” (Dianippon Sumitomo Pharma Co., Ltd., priority 2002, dated 2008).
Like-named read-outs stand apart in the source and are kept apart here.

Molecular target: T1, SMBS on rat lung membranes (Rattus norvegicus, UniProt A0A8I6A822)
T1 construct: from tissue; host or cells: rat lung membranes (SD male rats)
Assay: Receptor binding of the compound in rat lung membranes ([125I]-iodo-cyanopindolol ligand binding assay; Experiments 1 and 4)
Details: read-out: Binding Activity (30 μM)
Experimental: Evaluation Test on Receptor Binding of the Compound in Rat Lung Membranes:
This experiment was carried out according to the method disclosed in Sugasawa et al., (Sugasawa, T. et al., J. Biol. Chem., 272, 21244-21252(1997)).
Preparation of Rat Lung Membranes
The air tube and blood vessels were removed from the lung excised from SD male rats (7-weeks old when used, purchased from Charles River Japan, Inc.), and the lung was chopped, and washed with ice-cold tris-saline buffer (10 mM Tris-HCl, 154 mM sodium chloride, pH 7.4). The lung was homogenized by PHYSCOTRON (maximum speed: 1 minute) in a buffer for homogenization (tris-saline buffer containing 1 mM ethylenediaminetetraacetate (EDTA), 1 mM 4-(2-aminoethyl)-benzenesulfonyl fluoride (AEBSF), 5 μg/ml aprotinin, 5 μg/ml leupeptin) under ice-cooling. The mixture was centrifuged at a low speed (1500×g, 20 minutes, 4° C.), and the supernatant was super-centrifuged (100000×g, 20 minutes, 4° C.). The pellets thus obtained were suspended in tris-saline buffer, and kept at −80° C. The concentration of protein was measured by a Protein Assay Kit manufactured by Bio-Rad using bovine serum albumin (BSA) as standard.
To each well of a protein-non-adsorbent round-bottom 96-well assay plate (purchased from IWAKI GLASS CO., LTD.) was added tris-saline buffer (200 μl) containing 1 nM [^125I]-iodo-cyanopindolol (purchased from Amarsham), 10 μM serotonin, 20 μM dl-propranol, 10 μM phentoramine, 1.1 mM ascorbic acid and 100 μg lung membranes, and the mixture was mixed well by pipetting, and the plate was incubated at 37° C. for 30 minutes. Test compounds were dissolved in 100% dimethylsulfoxide, and added to the plate in an amount of 2 μl (final concentration of DMSO: 1%). In order to obtain non-specific binding, L-threo-3-(3,4-dihydroxyphenyl)-N-[3-(4-fluorophenyl)propyl]-serinepyrrolidinamide was added at a final concentration of 100 μM instead of test compound. During this period, 0.3% polyethyleneimine (PEI)/tris-saline buffer (100 μl) was added to a multiscreen plate (96-well B-glassfiber, milipore Cat. No. MAFB NOB10) and the plate was incubated for more than 30 minutes. The plate was washed by vacuum filtration (by adding ice-cold tris-saline buffer (200 μl) and then vacuum filtration), and the reaction solution on the 96-well assay plate was washed by vacuum filtration onto the multiscreen plate for four times. The B-glassfiber paper filter at the bottom of the multiscreen plate was punched out, and the γ-ray amount of [^125I]-iodo-cyanopindolol being trapped onto the paper filter was measured as binding amount. The binding amount in the presence of DMSO (final concentration: 1%) was regarded as total binding, and the binding in the presence of L-threo-3-(3,4-dihydroxyphenyl) -N-[3-(4-fluorophenyl)-propyl]serinepyrrolidinamide was regarded as non-specific binding. The value which is calculated by subtracting non-specific binding from total binding is specific binding. The binding activity of the compound can be calculated by the following equation, and expressed in a ratio of inhibiting the specific binding of [^125I]-iodo-cyanopindorol to SMBS on rat lung membranes.
In the same manner to in Experiment 1, the receptor binding assay was carried out on the present compounds by using the rat lung membranes.

[1] = Table 42, concentration tested 30 μM, rat lung membranes, Experiment 4
[2] = Table 43, concentration tested 30 μM, rat lung membranes, Experiment 4
[3] = Table 44, concentration tested 30 μM, rat lung membranes, Experiment 4

T1 sequence (A0A8I6A822 27-587): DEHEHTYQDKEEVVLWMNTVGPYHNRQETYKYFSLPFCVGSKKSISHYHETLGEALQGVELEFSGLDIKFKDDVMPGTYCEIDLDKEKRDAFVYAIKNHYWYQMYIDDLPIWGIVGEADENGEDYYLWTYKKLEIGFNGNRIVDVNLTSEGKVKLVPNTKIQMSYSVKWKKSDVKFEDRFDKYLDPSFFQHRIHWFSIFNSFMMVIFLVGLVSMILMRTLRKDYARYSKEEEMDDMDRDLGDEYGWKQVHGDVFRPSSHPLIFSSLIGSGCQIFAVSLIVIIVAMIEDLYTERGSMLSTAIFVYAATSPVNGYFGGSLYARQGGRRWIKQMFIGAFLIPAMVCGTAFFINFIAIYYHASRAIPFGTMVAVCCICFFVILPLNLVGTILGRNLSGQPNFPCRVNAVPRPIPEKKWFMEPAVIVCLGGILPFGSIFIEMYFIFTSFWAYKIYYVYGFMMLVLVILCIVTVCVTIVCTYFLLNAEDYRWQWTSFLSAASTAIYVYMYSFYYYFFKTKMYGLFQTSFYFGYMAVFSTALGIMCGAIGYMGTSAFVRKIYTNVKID

Row | SMILES | inhibition at 30 µM [2] | other results
1 | CCNC(=O)NCCn1c(-c2ccc(N3CCOCC3)cc2)cs/c1=N\c1ccc(F)cc1 [Example 280] | – | inhibition at 30 µM [1]: 99%
2 | CCCCCCNC(=O)NCCCn1c(-c2ccc(N3CCOCC3)cc2)cs/c1=N\c1ccc(F)cc1 [Example 284] | – | inhibition at 30 µM [1]: 77%
3 | O=C(NCCCn1c(-c2ccc(N3CCOCC3)cc2)cs/c1=N\c1ccc(F)cc1)NC1CCCCC1 [Example 285] | – | inhibition at 30 µM [1]: 35%
4 | O=C(NCCCn1c(-c2ccc(N3CCOCC3)cc2)cs/c1=N\c1ccc(F)cc1)Nc1ccc(F)cc1 [Example 288] | – | inhibition at 30 µM [1]: 34%
5 | O=C(NCCCn1c(-c2ccc(N3CCOCC3)cc2)cs/c1=N\c1ccc(F)cc1)NCc1ccccc1 [Example 290] | – | inhibition at 30 µM [1]: 98%
6 | COc1ccc(NC(=O)NCCCn2c(-c3ccc(N4CCOCC4)cc3)cs/c2=N\c2ccc(F)cc2)cc1 [Example 291] | – | inhibition at 30 µM [1]: 68%
7 | CCNC(=O)NCCCCCn1c(-c2ccc(N3CCOCC3)cc2)cs/c1=N\c1ccc(F)cc1 [Example 295] | – | inhibition at 30 µM [1]: 18%
8 | CCNC(=O)NCCCn1c(-c2ccc(N3CCOCC3)cc2)cs/c1=N\c1ncccn1 [Example 297] | – | inhibition at 30 µM [1]: 75%
9 | CCNC(=O)NCCCn1c(-c2ccc(N3CCOCC3)cc2)cs/c1=N\c1ccc(OC)cn1 [Example 298] | – | inhibition at 30 µM [1]: 101%
10 | CCNC(=O)NCCCn1c(-c2ccc(N3CCOCC3)cc2)cs/c1=N\c1nccs1 [Example 299] | 93% | –
11 | CCNC(=O)NCCCn1c(CN(C)Cc2ccc(Cl)cc2)cs/c1=N\c1ccc(OC(F)(F)F)cc1 [Example 303] | 23% | –
12 | CCNC(=O)NCCCn1c(COCc2ccccc2)cs/c1=N\c1ccc(OC(F)(F)F)cc1 [Example 305] | 13% | –
13 | CCNC(=S)NCCCn1c(-c2ccc(N3CCOCC3)cc2)cs/c1=N\c1ccc(F)cc1 [Example 312] | 112% | –
14 | COCCOCCNCCCn1c(-c2ccc(F)cc2)cs/c1=N\c1ccc(Cl)cc1OC [Example 316] | 102% | –
15 | O=C(O)CNCCCn1c(-c2ccc(N3CCOCC3)cc2)csc1=Nc1ccc(F)cc1 [Example 329, N-{3-[2-[(4-Fluorophenyl)imino]-4-[4-(morpholino)phenyl]thiazol-3(2H)-yl]propyl}glycine] | 76% | –
16 | CN(C)C(=O)CNCCCn1c(-c2ccc(N3CCOCC3)cc2)cs/c1=N\c1ccc(F)cc1 [Example 342] | 56% | –

Row | SMILES | inhibition at 30 µM [2] | other results
17 | O=C(CNCCCn1c(-c2ccc(N3CCOCC3)cc2)cs/c1=N\c1ccc(F)cc1)NCCO [Example 344] | 101% | –
18 | CN(C)CCNC(=O)NCCCn1c(-c2ccc(N3CCOCC3)cc2)csc1=Nc1ccc(F)cc1 [Example 349, N-[2-(Dimethylamino)ethyl]-N′-{3-[2-[(4-fluorophenyl)imino]-4-[4-(morpholino)phenyl]thiazol-3(2H)-yl]propyl}urea] | 100% | –
19 | COCCNC(=O)NCCCn1c(-c2ccc(N3CCOCC3)cc2)cs/c1=N\c1ccc(F)cc1 [Example 355] | 89% | –
20 | O=C(CNc1ccccc1)NCCCn1c(-c2ccc(N3CCOCC3)cc2)cs/c1=N\c1ccc(F)cc1 [Example 359] | 82% | –
21 | CCOC(=O)NCCCn1c(-c2ccc(OC(F)(F)F)cc2)cs/c1=N\Cc1ccc(Cl)cc1 [Example 368] | – | inhibition at 30 µM [3]: 100%
22 | COCC(=O)NCCCn1c(-c2ccc(OC(F)(F)F)cc2)cs/c1=N\Cc1ccc(OC)cc1OC [Example 383, N-{3-[2-[(2,4-Dimethoxybenzyl)imino]-4-[4-(trifluoromethoxy)phenyl]-1,3-thiazol-3(2H)-yl]propyl}-2-methoxyacetamide] | 84% | –
23 | O=C(NCCCl)NCCCn1c(-c2ccc(OC(F)(F)F)cc2)cs/c1=N\Cc1ccc(Cl)cc1 [Example 390] | – | inhibition at 30 µM: 120%
24 | O=C(NCCCn1c(-c2ccc(OC(F)(F)F)cc2)cs/c1=N\Cc1ccc(Cl)cc1)Nc1ccc(F)cc1 [Example 393] | – | inhibition at 30 µM [3]: 80%
25 | CCNC(=O)NCCCn1c(-c2ccc(OC)cc2)cs/c1=N\CCc1ccncc1 [Example 398] | – | inhibition at 30 µM [3]: 37%
26 | CCNC(=O)NCCCn1c(-c2ccc(F)cc2)cs/c1=N\Cc1ccc(Cl)cc1OC [Example 402, N-{3-[2-[(4-Chloro-2-methoxybenzyl)imino]-4-(4-fluorophenyl)-1,3-thiazol-3(2H)-yl]propyl}-N′-ethylurea] | 79% | –
27 | CN(C)C(=O)NCCCn1c(-c2ccc(OC(F)(F)F)cc2)cs/c1=N\Cc1ccc(Cl)cc1 [Example 404] | – | inhibition at 30 µM [3]: 109%
28 | O=C(NCCCn1c(-c2ccc(OC(F)(F)F)cc2)cs/c1=N\Cc1ccc(Cl)cc1)N1CCOCC1 [Example 405] | – | inhibition at 30 µM [3]: 115%
29 | O=C(NCCCn1c(-c2ccc(OC(F)(F)F)cc2)cs/c1=N\Cc1ccc(Cl)cc1)NCCN1CCCC1 [Example 408] | – | inhibition at 30 µM [3]: 121%
30 | COCCNCCCn1c(-c2ccc(F)cc2)cs/c1=N\Cc1ccc(Cl)cc1OC [Example 411, 3-[2-[(4-Chloro-2-methoxybenzyl)imino]-4-(4-fluorophenyl)-1,3-thiazol-3(2H)-yl]-(2-methoxyethyl)-1-propanamine] | 118% | –
31 | COc1ccc(C/N=c2\scc(-c3ccc(OC(F)(F)F)cc3)n2CCCNCC(F)(F)F)c(OC)c1 [Example 413] | – | inhibition at 30 µM [3]: 96%

Further lines, with some results ahead:

Row | inhibition at 30 µM [2] | SMILES | other results
32 | 48% | CCNC(=O)NCCCn1c(COCc2ccccc2)cs/c1=N\c1ccc(OC)cn1 [Example 307] | –
33 | 100% | CN(C)C(=O)NCCCn1c(-c2ccc3c(c2)OCO3)cs/c1=N\c1ccc(OC(F)(F)F)cc1 [Example 309] | –
34 | 115% | COCCNCCCn1c(-c2ccc(F)cc2)cs/c1=N\c1ccc(Cl)cc1OC [Example 315] | –
35 | 101% | CCNC(=O)CNCCCn1c(-c2ccc(N3CCOCC3)cc2)csc1=Nc1ccc(F)cc1 [Example 335, N^1-ethyl-N^2-{3-[2-[(4-fluorophenyl)imino]-4-[4-(morpholino)phenyl]-thiazol-3(2H)-yl]propyl}glycinamide] | –
36 | 107% | CCN(CC)C(=O)CNCCCn1c(-c2ccc(N3CCOCC3)cc2)cs/c1=N\c1ccc(F)cc1 [Example 343] | –
37 | 86% | O=C(CN1CCCC1)NCCCn1c(-c2ccc(N3CCOCC3)cc2)csc1=Nc1ccc(F)cc1 [Example 357, N-{3-[2-[(4-Fluorophenyl)imino]-4-[4-(morpholino)phenyl]thiazol-3(2H)-yl]propyl}-2-(1-pyrrolidinyl)acetamide] | –
38 | 88% | CN(C)CC(=O)NCCCn1c(-c2ccc(N3CCOCC3)cc2)cs/c1=N\c1ccc(F)cc1 [Example 361] | –
39 | 117% | COc1ccc(C/N=c2\scc(-c3ccc(OC(F)(F)F)cc3)n2CCCN)c(OC)c1 [Example 362, 3-[2-[(2,4-Dimethoxybenzyl)imino]-4-[4-(trifluoromethoxy)phenyl]-1,3-thiazol-3(2H)-yl]-1-propanamine] | –
40 | 90% | COc1ccc(C/N=c2\scc(-c3ccc(OC(F)(F)F)cc3)n2CCCNC(C)=O)c(OC)c1 [Example 373, N-{3-[2-[(2,4-dimethoxybenzyl)imino]-4-[4-(trifluoromethoxy)phenyl]-1,3-thiazol-3(2H)-yl]propyl}acetamide] | –
41 | 107% | O=C(CN1CCCC1)NCCCn1c(-c2ccc(OC(F)(F)F)cc2)cs/c1=N\Cc1ccc(Cl)cc1 [Example 384, N-{3-[2-[(4-Chlorobenzyl)imino]-4-[4-(trifluoromethoxy)phenyl]-1,3-thiazol-3(2H)-yl]propyl}-2-(1-pyrrolidinyl)acetamide] | –
42 | 89% | COCCNC(=O)NCCCn1c(-c2ccc(OC(F)(F)F)cc2)cs/c1=N\Cc1ccc(Cl)cc1 [Example 409, N-{3-[2-[(4-Chlorobenzyl)imino]-4-[4-(trifluoromethoxy)phenyl]-1,3-thiazol-3(2H)-yl]propyl}-N′-(2-methoxyethyl)urea] | –
